Data published in patent US7452479B2, “Chemical base for fuel cell engine heat exchange coolant/antifreeze comprising 1,3-propanediol” (Shell Oil Company, priority 2001, dated 2008).
Like-named read-outs stand apart in the source and are kept apart here.

Tests used:
[1] = Physical property data; format: physicochemical
[2] = ASTM D1177 freeze point; format: physicochemical
From the text: FIG. 1 illustrates the aqueous solution freeze point characteristics of the 1,3-propanediol and GM 6043 (EG). […] This could be an indication that actual protection against hard, damaging freezing is actually better, approaching the effective protection point of the EG-based product. […] We feel that the antifreeze properties of the chemistry are acceptable. Indeed a 50% solution would provide adequate protection against freezing in most geographies. TC in FIG. 1 is an internal designation for the PDO aqueous solutions at 50, 55, and 60 volume percent PDO.

SMILES | Specific Gravity [1] | Specific Gravity ([1]; 20° C.) | Freeze protection ([2]; 55% in water) | Appearance at the reported freeze point ([2]; aqueous solution)
OCCO [EG, ethylene glycol] | 1.115 | – | – | –
OCCCO [PDO, 1,3-propanediol] | – | 1.0526 | equivalent to 50% EG | soft and slushy
CC(O)CO (centres unmarked) [PG, propylene glycol] | – | 1.032 | – | –
